Reference: patent US20170369444A1, “INHIBITORS OF HISTONE DEMETHYLASES” (Gilead Sciences, Inc., priority 2014, published 2017)

Columns and labels:
Type in all cases: biochemical
PHF8 (KDM7) = PHF8 (KDM7) (Homo sapiens, UniProt Q9UPP1); assay: Histone lysine demethylase AlphaLISA assay, PHF8; conditions: in vitro enzyme, read-out: PHF8 IC50 (HDME Inhibition)
KDM6A (UTX) = target: T1, KDM6A (UTX) (Homo sapiens, UniProt O15550); assay: Histone lysine demethylase AlphaLISA assay, KDM6A; conditions: in vitro enzyme, read-out: KDM6A IC50 (HDME Inhibition)
T1 construct: 919-1401; host or cells: E. coli
T1 sequence (O15550 919-1401): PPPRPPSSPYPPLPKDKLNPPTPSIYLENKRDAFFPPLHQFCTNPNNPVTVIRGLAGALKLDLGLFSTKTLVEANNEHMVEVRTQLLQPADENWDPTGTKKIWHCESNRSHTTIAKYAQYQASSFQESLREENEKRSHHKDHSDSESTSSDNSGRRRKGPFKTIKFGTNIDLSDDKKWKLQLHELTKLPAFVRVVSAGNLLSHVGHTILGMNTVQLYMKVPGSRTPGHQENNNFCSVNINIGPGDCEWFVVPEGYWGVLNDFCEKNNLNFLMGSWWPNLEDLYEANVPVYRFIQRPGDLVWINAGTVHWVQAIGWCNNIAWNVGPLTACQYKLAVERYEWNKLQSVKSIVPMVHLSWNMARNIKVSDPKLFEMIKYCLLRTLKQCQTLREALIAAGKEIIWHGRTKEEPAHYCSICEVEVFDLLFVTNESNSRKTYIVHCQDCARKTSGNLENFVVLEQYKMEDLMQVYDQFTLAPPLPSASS

KDM5B (PLU-1) = target: T2, KDM5B (PLU-1) (Homo sapiens, UniProt Q9UGL1); assay: Histone lysine demethylase AlphaLISA assay, KDM5B; conditions: in vitro enzyme, read-out: KDM5B IC50 (HDME Inhibition)
T2 construct: 1-809; host or cells: E. coli
T2 sequence (Q9UGL1 1-809): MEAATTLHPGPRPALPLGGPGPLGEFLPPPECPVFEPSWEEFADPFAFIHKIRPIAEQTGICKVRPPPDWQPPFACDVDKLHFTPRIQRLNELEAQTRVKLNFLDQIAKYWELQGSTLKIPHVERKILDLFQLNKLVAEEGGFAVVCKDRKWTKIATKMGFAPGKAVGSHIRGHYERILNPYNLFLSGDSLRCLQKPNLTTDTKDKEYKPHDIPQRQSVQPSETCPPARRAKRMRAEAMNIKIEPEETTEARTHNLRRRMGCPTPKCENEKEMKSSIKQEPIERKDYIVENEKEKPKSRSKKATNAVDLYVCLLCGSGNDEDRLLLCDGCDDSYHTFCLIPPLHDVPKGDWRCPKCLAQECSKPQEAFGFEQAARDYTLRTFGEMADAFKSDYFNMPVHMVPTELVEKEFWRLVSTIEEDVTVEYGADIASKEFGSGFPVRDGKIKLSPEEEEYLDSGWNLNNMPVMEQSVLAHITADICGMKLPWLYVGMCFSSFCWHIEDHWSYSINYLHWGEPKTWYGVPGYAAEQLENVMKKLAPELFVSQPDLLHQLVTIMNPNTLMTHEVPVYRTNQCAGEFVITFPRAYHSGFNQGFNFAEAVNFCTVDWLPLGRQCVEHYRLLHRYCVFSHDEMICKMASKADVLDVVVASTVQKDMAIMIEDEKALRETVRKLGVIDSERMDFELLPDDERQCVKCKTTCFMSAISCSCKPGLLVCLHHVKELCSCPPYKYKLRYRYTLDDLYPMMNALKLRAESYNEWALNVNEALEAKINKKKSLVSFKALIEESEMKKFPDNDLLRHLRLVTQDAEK

KDM4C (JMJD2C) = target: T3, KDM4C (JMJD2C) (Homo sapiens, UniProt Q9H3R0); assay: Histone lysine demethylase AlphaLISA assay, KDM4C; conditions: in vitro enzyme, read-out: KDM4C IC50 (HDME Inhibition)
T3 construct: 1-349; host or cells: E. coli
T3 sequence (Q9H3R0 1-349): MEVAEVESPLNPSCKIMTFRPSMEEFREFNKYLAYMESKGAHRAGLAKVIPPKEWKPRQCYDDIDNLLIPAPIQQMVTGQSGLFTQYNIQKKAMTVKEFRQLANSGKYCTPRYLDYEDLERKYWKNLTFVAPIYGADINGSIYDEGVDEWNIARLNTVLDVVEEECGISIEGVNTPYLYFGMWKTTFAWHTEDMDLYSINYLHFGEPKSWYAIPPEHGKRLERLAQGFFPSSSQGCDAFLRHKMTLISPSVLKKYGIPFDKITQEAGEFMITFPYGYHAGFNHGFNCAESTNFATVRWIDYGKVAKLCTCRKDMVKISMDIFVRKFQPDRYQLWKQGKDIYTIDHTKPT
Protocol: Histone lysine demethylase AlphaLISA assays are performed to determine IC50 values. […] Assays are performed analogously to the protocol described by PerkinElmer (Roy et al. PerkinElmer Technical Note: AlphaLISA #12, April 2011).
Assays are performed analogously to the protocol described by PerkinElmer (Roy et al. PerkinElmer Technical Note: AlphaLISA #12, April 2011).
Enzymes (final assay concentration 0.1-2.5 nM) are dissolved in enzyme buffer and incubated for 10 min before 5 μL is added to 5 μL 3% DMSO solutions of compounds in enzyme buffer, incubated for another 10 minutes, before 5 μL substrate solution is added and the reaction mixture is incubated at room temperature. 10 μL acceptor beads, suspended Epigenetic Buffer (Perkin Elmer AL008) from stock, are added and the suspension is incubated in the dark at room temperature, before 10 μL suspension of streptavidin donor beads (Perkin Elmer 6760002) in Epigenetic Buffer is added. After incubation at room temperature in the dark the plates are read.
Substrate solution: Substrate (final assay concentration 50-200 nM), 50 mM Hepes (pH 7.4-8.0), 0.003% Tween-20, 0.1% BS, 25 μM L-Asc, 10 μM α-KG. Enzyme Buffer: 50 mM Hepes (pH 7.4-8.0), 0.003% Tween-20, 0.1% BSA; 5 μM (NH4)2Fe(SO4)2

KDM2B (FBXL10) = target: T4, KDM2B (FBXL10) (Homo sapiens, UniProt Q8NHM5); assay: Histone lysine demethylase AlphaLISA assay, KDM2B; conditions: in vitro enzyme, read-out: KDM2B IC50 (HDME Inhibition)
T4 construct: 1-650; purchased BPS Bioscience, US; host or cells: Bac (baculovirus/insect cells)
T4 sequence (Q8NHM5 1-650): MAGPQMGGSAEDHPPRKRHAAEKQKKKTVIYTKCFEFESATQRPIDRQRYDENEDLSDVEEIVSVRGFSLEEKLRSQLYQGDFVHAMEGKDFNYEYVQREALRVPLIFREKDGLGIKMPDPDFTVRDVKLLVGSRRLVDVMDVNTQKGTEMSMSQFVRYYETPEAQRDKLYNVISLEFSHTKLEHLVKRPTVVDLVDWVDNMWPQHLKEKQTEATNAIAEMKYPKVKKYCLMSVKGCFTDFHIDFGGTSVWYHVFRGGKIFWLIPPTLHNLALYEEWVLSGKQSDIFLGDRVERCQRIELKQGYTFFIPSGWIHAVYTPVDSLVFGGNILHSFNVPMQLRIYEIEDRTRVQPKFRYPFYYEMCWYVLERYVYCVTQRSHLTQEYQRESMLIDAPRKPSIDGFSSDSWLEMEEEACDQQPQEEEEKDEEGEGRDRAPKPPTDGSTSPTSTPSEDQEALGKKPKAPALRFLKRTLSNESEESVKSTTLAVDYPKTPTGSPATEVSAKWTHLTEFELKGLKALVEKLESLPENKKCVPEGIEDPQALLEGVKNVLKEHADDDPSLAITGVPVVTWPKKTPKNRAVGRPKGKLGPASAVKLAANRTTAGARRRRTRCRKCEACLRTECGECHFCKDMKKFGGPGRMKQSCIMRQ

Chain of PHF8 (KDM7) (Q9UPP1 whole entry): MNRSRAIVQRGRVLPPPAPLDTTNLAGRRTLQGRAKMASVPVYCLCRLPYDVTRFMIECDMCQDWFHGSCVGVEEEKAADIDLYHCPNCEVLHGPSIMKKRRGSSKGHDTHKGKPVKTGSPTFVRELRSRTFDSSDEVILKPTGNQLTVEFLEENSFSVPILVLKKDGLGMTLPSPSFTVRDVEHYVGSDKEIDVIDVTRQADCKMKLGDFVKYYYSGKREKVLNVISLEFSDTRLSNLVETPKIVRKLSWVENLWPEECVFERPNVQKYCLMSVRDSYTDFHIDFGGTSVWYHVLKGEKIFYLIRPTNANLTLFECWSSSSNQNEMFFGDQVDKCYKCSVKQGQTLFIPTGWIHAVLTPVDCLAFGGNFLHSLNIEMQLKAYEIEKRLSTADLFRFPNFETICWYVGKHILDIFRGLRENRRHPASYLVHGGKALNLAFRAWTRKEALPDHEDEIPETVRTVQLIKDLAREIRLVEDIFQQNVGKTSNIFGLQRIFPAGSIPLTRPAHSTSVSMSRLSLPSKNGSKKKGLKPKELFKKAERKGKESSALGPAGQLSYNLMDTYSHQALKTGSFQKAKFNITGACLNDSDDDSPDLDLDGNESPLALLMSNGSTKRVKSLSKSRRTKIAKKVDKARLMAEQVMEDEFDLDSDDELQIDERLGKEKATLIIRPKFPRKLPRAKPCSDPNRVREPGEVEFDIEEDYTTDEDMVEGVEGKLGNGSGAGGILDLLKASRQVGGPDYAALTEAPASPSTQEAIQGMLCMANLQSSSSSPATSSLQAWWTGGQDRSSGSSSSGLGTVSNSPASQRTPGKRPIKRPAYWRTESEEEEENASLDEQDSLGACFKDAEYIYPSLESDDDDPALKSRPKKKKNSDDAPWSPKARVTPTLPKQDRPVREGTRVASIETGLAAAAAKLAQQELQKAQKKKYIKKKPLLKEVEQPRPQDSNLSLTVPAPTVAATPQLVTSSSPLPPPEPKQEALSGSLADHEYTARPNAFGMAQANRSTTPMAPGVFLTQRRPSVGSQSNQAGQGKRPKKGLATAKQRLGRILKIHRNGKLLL

Row | SMILES | IC50 (PHF8 (KDM7)) | IC50 (KDM6A (UTX)) | IC50 (KDM5B (PLU-1)) | IC50 (KDM4C (JMJD2C)) | IC50 (KDM2B (FBXL10))
1 | C[C@H](c1ccccc1)N1CCC[C@H](CNCc2cc(C(=O)O)ccn2)C1=O [Compound 2, 2-[({[(3R)-2-oxo-1-[(1R)-1-phenylethyl]piperidin-3-yl]methyl}amino)methyl]pyridine-4-carboxylic acid] | 250 to 2500 nM | > 2500 nM | < 250 nM | < 250 nM | < 250 nM
2 | COCC(=O)Nc1ccccc1CNC(=O)[C@H](CC(C)C)NCc1cc(C(=O)O)ccn1 [Compound 12, 2-({[(1S)-1-({[2-(2-methoxyacetamido)phenyl]methyl}carbamoyl)-3-methylbutyl]amino}methyl)pyridine-4-carboxylic acid] | 250 to 2500 nM |  |  | > 2500 nM | 250 to 2500 nM
3 | C[C@H](c1ccccc1)N1CCC[C@@H](CNCc2cc(C(=O)O)ccn2)C1=O [Compound 14, 2-[({[(3S)-2-oxo-1-[(1R)-1-phenylethyl]piperidin-3-yl]methyl}amino)methyl]pyridine-4-carboxylic acid] | 250 to 2500 nM | > 2500 nM | < 250 nM | 250 to 2500 nM | 250 to 2500 nM
4 | C[C@H](N[C@H](C)c1cc(C(=O)O)ccn1)C(=O)NCc1ccc(CO)cc1 [Compound 16, 2-[(1R)-1-{[(1S)-1-({[4-(hydroxymethyl)phenyl]methyl}carbamoyl)ethyl]amino}ethyl] pyridine-4-carboxylic acid] |  | > 2500 nM |  | > 2500 nM | 250 to 2500 nM
5 | C[C@H](c1ccccc1)N1CC[C@@H](CNCc2cc(C(=O)O)ccn2)C1=O [Compound 17, 2-[({[(3S)-2-oxo-1-[(1R)-1-phenylethyl]pyrrolidin-3-yl]methyl}amino)methyl]pyridine-4-carboxylic acid] | 250 to 2500 nM | > 2500 nM | < 250 nM | 250 to 2500 nM | < 250 nM
6 | CC(C)(C)OC(=O)NCCCC[C@@H](CO)NCc1cc(C(=O)O)ccn1 [Compound 22, 2-({[(2S)-6-{[(tert-butoxy)carbonyl]amino}-1-hydroxyhexan-2-yl]amino}methyl)pyri-dine-4-carboxylic acid] |  | > 2500 nM | < 250 nM | 250 to 2500 nM | < 250 nM
7 | CCN(CC)C(=O)CCN(CC(N)=O)C(C)c1cc(C(=O)O)ccn1 (centres unmarked) [Compound 31, 2-{1-[(carbamoylmethyl)[2-(diethylcarbamoyl)ethyl]amino]ethyl}pyridine-4-carboxylic acid] | > 2500 nM |  |  | > 2500 nM | > 2500 nM
8 | CCN(CC)C(=O)CCN(CCC(=O)N(CC)CC)Cc1cc(C(=O)O)ccn1 [Compound 32, 2-({bis[2-(diethylcarbamoyl)ethyl]amino}methyl)pyri-dine-4-carboxylic acid] | > 2500 nM |  |  | > 2500 nM | 250 to 2500 nM
9 | NC(=O)CCN(CC(=O)N1CCCCC1)Cc1cc(C(=O)O)ccn1 [Compound 34, 2-{[(2-carbamoylethyl)[2-oxo-2-(piperidin-1-yl)ethyl]amino]methyl} pyridine-4-carboxylic acid] | 250 to 2500 nM | > 2500 nM | < 250 nM | 250 to 2500 nM | 250 to 2500 nM
10 | O=C(O)c1cc(CNCC(=O)N2CCCCC2)ncn1 [Compound 35, 6-({[2-oxo-2-(piperidin-1-yl)ethyl]amino}methyl) pyrimidine-4-carboxylic acid] | 250 to 2500 nM | > 2500 nM |  | 250 to 2500 nM | 250 to 2500 nM
11 | CCN(CC)C(=O)CC(C)NCc1cc(C(=O)O)ccn1 (centres unmarked) [Compound 43, 2-({[1-(diethylcarbamoyl)propan-2-yl]amino}methyl)pyri-dine-4-carboxylic acid] | 250 to 2500 nM |  |  | > 2500 nM | 250 to 2500 nM

Second part, the molecule after the results:

Row | IC50 (PHF8 (KDM7)) | IC50 (KDM6A (UTX)) | IC50 (KDM5B (PLU-1)) | IC50 (KDM4C (JMJD2C)) | IC50 (KDM2B (FBXL10)) | SMILES
12 | 250 to 2500 nM |  |  | > 2500 nM | 250 to 2500 nM | CCNC(=O)C[C@H]1CCN(Cc2cc(C(=O)O)ccn2)C1 [Compound 73, 2-{[(3R)-3-[(ethylcarbamoyl)methyl]pyrrolidin-1-yl]methyl}pyridine-4-carboxylic acid]
13 |  | > 2500 nM |  | > 2500 nM | 250 to 2500 nM | O=C(O)c1ccnc(CNCc2cn(Cc3ccc(F)cc3)c3ccc(F)cc23)c1 [Compound 86, 2-{[({5-fluoro-1-[(4-fluorophenyl)methyl]-1H-indol-3-yl}methyl)amino]methyl}pyridine-4-carboxylic acid]
14 | < 250 nM |  |  | 250 to 2500 nM | < 250 nM | C=CCc1cnc2c(c1)CCC2NCc1cc(C(=O)O)ccn1 (centres unmarked) [Compound 95, 2-({[3-(prop-2-en-1-yl)-5H,6H,7H-cyclopenta[b]pyridin-7-yl]amino}methyl)pyri-dine-4-carboxylic acid]
15 |  | > 2500 nM |  | 250 to 2500 nM | < 250 nM | CC(C)c1ccnc2c1CCC2NCc1cc(C(=O)O)ccn1 (centres unmarked) [Compound 99, 2-({[4-(propan-2-yl)-5H,6H,7H-cyclopenta[b]pyridin-7-yl]amino}methyl)pyri-dine-4-carboxylic acid]
16 |  |  | < 250 nM | 250 to 2500 nM | < 250 nM | COc1ccnc2c1CCC2NCc1cc(C(=O)O)ccn1 (centres unmarked) [Compound 101, 2-[({4-methoxy-5H,6H,7H-cyclopenta[b]pyridin-7-yl}amino)methyl]pyri-dine-4-carboxylic acid]
17 | < 250 nM | > 2500 nM |  | 250 to 2500 nM | < 250 nM | O=C(O)c1ccnc(CNC2CCc3cc(Br)cnc32)c1 (centres unmarked) [Compound 103, 2-[({3-bromo-5H,6H,7H-cyclopenta[b]pyridin-7-yl}amino)methyl]pyri-dine-4-carboxylic acid]
18 |  | > 2500 nM |  | < 250 nM | < 250 nM | CCN1CC[C@H](CNCc2cc(C(=O)O)ccn2)C1=O [Compound 106, 2-[({[(3R)-1-ethyl-2-oxopyrrolidin-3-yl]methyl}amino)methyl]pyridine-4-carboxylic acid]
